In US11447504B2, “Macrocyclic chlorine substituted indole derivatives” (Bayer Aktiengesellschaft, priority 2017, dated 2022):
Where a name gives a salt, the structure may show the parent alone. Read-outs that look alike come from different tables or passages of the source.

Legend:
SUDHL5 [1] = assay: Induction of caspase-3/7 activity (Assay 4), SUDHL5; type: cell-based; details: SUDHL5 cells
Procedure: (§1) Induction of Caspase-3/7 Activity Upon Treatment of Cells with Selected Compounds
The BH3-domain of MCL-1 sequesters pro-apoptotic proteins, thereby inhibiting apoptosis. In contrast, MCL-1 inhibitors are expected to antagonize this effect leading to an increase in apoptosis, which can be determined by measuring the activity of caspase-3/7.
(§2) The activity of caspase-3/7 was determined in DLBCL (Diffuse large B-cell lymphoma) cell lines (SUDHL5 and SUDHL10) upon treatment with different compounds, using the Caspase-Glo®3/7 reagent from Promega (G8092).
(§3) Rim wells were excluded. The cells were incubated for 3 hours in a humidified incubator at 37° C.
(§4) For the evaluation of the results, the background measured with “medium-only” was subtracted from all other values.

SUDHL10 [2] = assay: Induction of caspase-3/7 activity (Assay 4), SUDHL10; type: cell-based; details: SUDHL10 cells
Procedure: as §1
In contrast, MCL-1 inhibitors are expected to antagonize this effect leading to an increase in apoptosis, which can be determined by measuring the activity of caspase-3/7.
as §2, §3, §4

SUDHL5 [3] = assay: Antiproliferation assay 7, SUDHL5; type: cell-based; details: SUDHL5 cells, CellTiter-Glo, read-out: Antiproli SUDHL5 IC50 (median)
Procedure: (§5) Assessment of the Anti-Proliferative Effect of Compounds in Different Cell Lines
(§6) The impact of compounds on the proliferation of different cell lines was assessed using the CellTiter-Glo® Luminescent Cell Viability reagent from Promega (G7573).
(§7) In parallel, cells were plated in a reference (day 0) plate for time zero determination.
(§8) Rim wells were excluded. The cells were incubated for 72 hours in a humidified incubator at 37° C. The day 0 plate was measured by adding 30 μL/well of CTG solution (CellTiter-Glo® Luminescent Cell Viability reagent, Promega G7573) to time zero wells in the reference plate followed by a 10 minutes incubation and luminescence reading at 0.1 ms. using the PHERAstar FS microplate reader (BMG Labtech).
(§9) After 72 hours incubation, the treated plates were measured in the same way as the day 0 plate mentioned above.

MV-4-11 = assay: Antiproliferation assay 7, MV-4-11; type: cell-based; details: MV-4-11 cells, CellTiter-Glo, read-out: Antiproli MV-4-11 IC50 median
Procedure: as §5, §6, §7, §8, §9

SUDHL5 [4] = assay: Induction of cytotoxicity (Assay 6), SUDHL5
SUDHL10 [5] = assay: Induction of cytotoxicity (Assay 6), SUDHL10
AMO-1 = assay: Antiproliferation assay 7, AMO-1; type: cell-based; details: AMO-1 cells, CellTiter-Glo, read-out: Antiproli AMO-1 IC50 median
Procedure: as §5, §6, §7, §8, §9

[6] = Homo sapiens, SU-DHL-5, 3 h, Caspase-Glo 3/7, read-out: Caspase SUDHL5 EC50 (median)
[7] = Homo sapiens, SU-DHL10, 3 h, Caspase-Glo 3/7, read-out: Caspase SUDHL10 EC50 (median)
[8] = Homo sapiens, SU-DHL-5, 5 h, read-out: Cytotox SUDHL5 IC50 (median), SUDHL5 cells, 5 hours, CellTiter-Glo
[9] = Homo sapiens, SU-DHL10, 5 h, read-out: Cytotox SUDHL10 IC50 (median), SUDHL10 cells, 5 hours, CellTiter-Glo
[10] = 3 hours, Caspase-Glo 3/7, read-out: Caspase SUDHL5 EC50 (median)
[11] = read-out: Cytotox SUDHL5 IC50 (median), SUDHL5 cells, 5 hours, CellTiter-Glo
[12] = read-out: Cytotox SUDHL10 IC50 (median), SUDHL10 cells, 5 hours, CellTiter-Glo
[13] = 3 hours, Caspase-Glo 3/7, read-out: Caspase SUDHL10 EC50 (median)

EC50 (SUDHL5 [1]; [6]) | EC50 (SUDHL10 [2]; [7]) | IC50 (SUDHL5 [3]; Homo sapiens, SU-DHL-5, 72 h) | IC50 (MV-4-11; Homo sapiens, MV4-11, 72 h) | EC50 (SUDHL5 [1]; [10]) | IC50 (SUDHL5 [3]; 72 hours) | EC50 (SUDHL10 [2]; [13]) | Compound | IC50 (SUDHL5 [4]; [8]) | IC50 (SUDHL10 [5]; [9]) | IC50 (AMO-1; Homo sapiens, AMO1, 72 h) | IC50 (MV-4-11; 72 hours) | IC50 (SUDHL5 [4]; [11]) | IC50 (SUDHL10 [5]; [12]) | IC50 (AMO-1; 72 hours)
2.9 µM | 5.8 µM | 3 µM | 8.08 µM |  |  |  | Cc1c2c(nn1C)CNCCCn1c(C(=O)O)c(CCCOc3cccc4ccccc34)c3ccc(Cl)c-2c31 (racemic) [Example 28, (rac)-12-chloro-10,11-dimethyl-1-[3-(naphthalen-1-yloxy)propyl]-4,5,6,7,8,10-hexahydropyrazolo[3′,4′:7,8][1,5]diazecino[9,10,1-hi]indole-2-carboxylic Acid-Formic Acid Salt] | 3.3 µM | 5.6 µM |  |  |  |  | 
1.2 µM | 3.7 µM |  | 2.68 µM |  |  |  | Cc1c2c(nn1C)CN(C)CCCn1c(C(=O)O)c(CCCOc3cccc4ccccc34)c3ccc(Cl)c-2c31 (racemic) [Example 29, (rac)-12-chloro-7,10,11-trimethyl-1-[3-(naphthalen-1-yloxy)propyl]-4,5,6,7,8,10-hexahydropyrazolo[3′,4′:7,8][1,5]diazecino[9,10,1-hi]indole-2-carboxylic Acid] |  | 3.2 µM |  |  |  |  | 
0.67 µM | 5.7 µM |  | 1.7 µM |  |  |  | CCc1nn(C)c2c1-c1c(Cl)ccc3c(CCCOc4cccc5cc(F)ccc45)c(C(=O)O)n(c13)CCCCOC2 (racemic) [Example 33, (rac)-4-chloro-3-ethyl-7-{3-[(6-fluoronaphthalen-1-yl)oxy]propyl}-1-methyl-1,10,11,12,13,15-hexahydropyrazolo[4′,3′:9,10][1,6]oxazacycloundecino[8,7,6-hi]indole-8-carboxylic Acid] | 1 µM |  | 1.58 µM |  |  |  | 
 |  |  |  |  | 3.4 µM | 10 µM | CCc1c2c(nn1C)CN(C)CCCCn1c(C(=O)O)c(CCCOc3cccc4ccccc34)c3ccc(Cl)c-2c31 (single isomer, unassigned; enantiomer 2) [Example 24, 4-chloro-3-ethyl-2,14-dimethyl-7-[3-(naphthalen-1-yloxy)propyl]-10,11,12,13,14,15-hexahydro-2H-pyrazolo[3′,4′:8,9][1,6]diazacycloundecino[10,11,1-hi]indole-8-carboxylic Acid (Enantiomer 2)] |  |  |  | 6.72 µM | 4.7 µM | 7.4 µM | 
 |  |  |  | 7.6 µM | 6.1 µM | 22 µM | CCc1nn(C)c2c1-c1c(Cl)ccc3c(CCCOc4cccc5cc(F)ccc45)c(C(=O)O)n(c13)CCCCOC2 (single isomer, unassigned; enantiomer 2) [Example 35, (−)-4-chloro-3-ethyl-7-{3-[(6-fluoronaphthalen-1-yl)oxy]propyl}-1-methyl-1,10,11,12,13,15-hexahydropyrazolo[4′,3′:9,10][1,6]oxazacycloundecino[8,7,6-hi]indole-8-carboxylic Acid (Enantiomer 2)] |  |  |  | 8.59 µM | 6.3 µM |  | 13.3 µM
 |  |  |  | 24 µM | 7.1 µM | 23 µM | CCc1c2c(nn1C)N(CCC1CCOCC1)CCCCCn1c(C(=O)O)c(CCCOc3cccc4cc(F)ccc34)c3ccc(Cl)c-2c31 (single isomer, unassigned; enantiomer 2) [Example 82, 4-chloro-3-ethyl-7-{3-[(6-fluoronaphthalen-1-yl)oxy]propyl}-2-methyl-15-[2-(oxan-4-yl)ethyl]-10,11,12,13,14,15-hexahydro-2H-pyrazolo[4′,3′:4,5][1,6]diazacycloundecino[3,2,1-hi]indole-8-carboxylic acid N-ethylethanamine Salt—Enantiomer 2] |  |  |  |  | 28 µM | 30 µM | 
 |  |  |  | 1.8 µM | 4.2 µM | 8.3 µM | Cc1c2c(nn1C)COCC1CCC1Cn1c(C(=O)O)c(CCCOc3cccc4ccccc34)c3ccc(Cl)c-2c31 (single isomer, unassigned; stereoisomer 2) [Example 64] |  |  |  |  | 2.3 µM | 7.3 µM | 10.8 µM

Further lines, the molecule ahead of its results:

Compound | EC50 (SUDHL5 [1]; [6]) | EC50 (SUDHL10 [2]; [7]) | IC50 (SUDHL5 [3]; Homo sapiens, SU-DHL-5, 72 h) | IC50 (MV-4-11; Homo sapiens, MV4-11, 72 h) | EC50 (SUDHL5 [1]; [10]) | IC50 (SUDHL5 [3]; 72 hours) | EC50 (SUDHL10 [2]; [13]) | IC50 (SUDHL5 [4]; [8]) | IC50 (SUDHL10 [5]; [9]) | IC50 (AMO-1; Homo sapiens, AMO1, 72 h) | IC50 (MV-4-11; 72 hours) | IC50 (SUDHL5 [4]; [11]) | IC50 (SUDHL10 [5]; [12]) | IC50 (AMO-1; 72 hours)
CCc1nn(CCN2CCOCC2)c2c1-c1c(Cl)ccc3c(CCCOc4cccc5ccccc45)c(C(=O)O)n(c13)CCCCOC2 (single isomer, unassigned; enantiomer 2) [Example 10, 4-chloro-3-ethyl-1-[2-(morpholin-4-yl)ethyl]-7-[3-(naphthalen-1-yloxy)propyl]-1,10,11,12,13,15-hexahydropyrazolo[4′,3′:9,10][1,6]oxazacycloundecino[8,7,6-hi]indole-8-carboxylic acid-N-ethylethanamine Salt (Enantiomer 2)] | 6.6 µM | 14 µM | 4.9 µM | 10.9 µM |  |  |  | 5.2 µM | 11 µM |  |  |  |  | 
Cc1c2c(nn1C)CN(C)CCCCn1c(C(=O)O)c(CCCOc3cccc4ccccc34)c3ccc(Cl)c-2c31 (single isomer, unassigned; enantiomer 2) [Example 13, (−)-4-chloro-2,3,14-trimethyl-7-[3-(naphthalen-1-yloxy)propyl]-10,11,12,13,14,15-hexahydro-2H-pyrazolo[3′,4′:8,9][1,6]diazacycloundecino[10,11,1-hi]indole-8-carboxylic acid-N-ethylethanamine Salt (Enantiomer 2)] |  |  |  |  | 10 µM | 6.4 µM |  |  |  |  | 12.2 µM | 6.9 µM | 13 µM | 
Cc1c2c(nn1C)COCCCCn1c(C(=O)O)c(CCCOc3cccc4cc(F)ccc34)c3ccc(Cl)c-2c31 (single isomer, unassigned; enantiomer 2) [Example 17, (−)-4-chloro-7-{3-[(6-fluoronaphthalen-1-yl)oxy]propyl}-2,3-dimethyl-2,10,11,12,13,15-hexahydropyrazolo[4′,3′:9,10][1,6]oxazacycloundecino[8,7,6-hi]indole-8-carboxylic acid-N-ethylethanamine Salt (Enantiomer 2)] |  |  |  |  | 3.6 µM | 1.5 µM | 5.2 µM |  |  |  | 6.7 µM | 3.3 µM |  | 8.91 µM
CCc1c2c(nn1C)COCCCCn1c(C(=O)O)c(CCCOc3cccc4ccccc34)c3ccc(Cl)c-2c31 (single isomer, unassigned; enantiomer 2) [Example 21, 4-chloro-3-ethyl-2-methyl-7-[3-(naphthalen-1-yloxy)propyl]-2,10,11,12,13,15-hexahydropyrazolo[4′,3′:9,10][1,6]oxazacycloundecino[8,7,6-hi]indole-8-carboxylic Acid (Enantiomer 2)] |  |  |  |  | 4.6 µM | 3.3 µM |  |  |  |  |  | 3.7 µM | 11 µM | 
Cc1c2c(nn1C)COCCCCn1c(C(=O)O)c(CCCOc3cccc4ccccc34)c3ccc(Cl)c-2c31 (single isomer, unassigned; enantiomer 2) [Example 27, 4-chloro-2,3-dimethyl-7-[3-(naphthalen-1-yloxy)propyl]-2,10,11,12,13,15-hexahydropyrazolo-[4′,3′:9,10][1,6]oxazacycloundecino[8,7,6-hi]indole-8-carboxylic acid-N-ethylethanamine Salt (Enantiomer 2)] |  |  |  |  | 16 µM | 7.8 µM | 23 µM |  |  |  | 16.1 µM | 10 µM | 20 µM | 
